Laboratory results published in patent publication US8084492B2, “Benzofuran compound and pharmaceutical composition containing the same” (The New Industry Research Organization, priority 2004, dated 2011).

System: not given
Test: not given
Conditions: not given

Row | SMILES | melting point
1 | O=C(/C=C(/c1ccc(Cl)cc1)c1cc2cc(Br)ccc2o1)N1CCOCC1 [Example 10] | 150 to 153.5 °C
2 | O=C(/C=C/c1coc2ccccc12)N1CCOCC1 [Example 14] | 132.1 to 134.6 °C
3 | COc1cccc(NC(=O)/C=C(\C)c2c(C)oc3ccc(Cl)cc23)c1 [Example 4] | 139 to 142 °C
4 | COc1ccc(CCNC(=O)/C=C(\C)c2c(C)oc3ccc(Br)cc23)cc1OC [Example 5] | 143.1 to 150 °C
5 | COc1ccc(CCNC(=O)/C=C(/C)c2c(C)oc3ccc(Br)cc23)cc1OC [Example 15] | 150.1 to 153.5 °C
6 | COc1ccc(CCNC(=O)/C=C(\C)c2c(C)oc3ccc(Cl)cc23)cc1OC [Example 3] | 73 to 76 °C
7 | CCN(CC)C(=O)/C=C(/c1ccc(OC)cc1)c1cc2cc(Br)ccc2o1 [Example 13] | 93.5 to 96 °C
8 | COc1ccc(CCNC(=O)/C=C(\C)c2c(-c3ccccc3)oc3ccc(Cl)cc23)cc1OC [Example 11] | 169.1 to 171.9 °C
9 | COc1ccc(CCNC(=O)/C=C(/C)c2c(C)oc3ccc(Cl)cc23)cc1OC [Example 2] | 150.9 to 151.5 °C
10 | CCN(CC)C(=O)/C=C(/c1ccc(Cl)cc1)c1cc2cc(Br)ccc2o1 [Example 6] | 106.7 to 109.8 °C
11 | COc1ccc(CCNC(=O)/C=C/c2coc3ccccc23)cc1OC [Example 9] | 138.1 to 140.3 °C

Next, values leading:

Row | melting point | SMILES
12 | 116.9 to 124.4 °C | COc1ccc(CCNC(=O)C=C(C)c2c(C)oc3ccc([N+](=O)[O-])cc23)cc1OC [Example 21]
13 | 112.2 to 117 °C | COc1ccc(C(=CC(=O)NCCc2ccc(OC)c(OC)c2)c2cc3cc(Br)ccc3o2)cc1 [Example 17]
14 | 160.1 to 162.2 °C | COc1cccc(NC(=O)/C=C(/c2ccc(Cl)cc2)c2cc3cc(Br)ccc3o2)c1 [Example 16]
15 | 130 to 134 °C | CCN(CC)C(=O)/C=C(\C)c1c(C)oc2ccc([N+](=O)[O-])cc12 [Example 20]

Biological target: T1, human BLT2 (Homo sapiens, UniProt Q9NPC1)
T1 construct: expressed in transfected cells; host or cells: CHO cells
T1 sequence (Q9NPC1 1-358): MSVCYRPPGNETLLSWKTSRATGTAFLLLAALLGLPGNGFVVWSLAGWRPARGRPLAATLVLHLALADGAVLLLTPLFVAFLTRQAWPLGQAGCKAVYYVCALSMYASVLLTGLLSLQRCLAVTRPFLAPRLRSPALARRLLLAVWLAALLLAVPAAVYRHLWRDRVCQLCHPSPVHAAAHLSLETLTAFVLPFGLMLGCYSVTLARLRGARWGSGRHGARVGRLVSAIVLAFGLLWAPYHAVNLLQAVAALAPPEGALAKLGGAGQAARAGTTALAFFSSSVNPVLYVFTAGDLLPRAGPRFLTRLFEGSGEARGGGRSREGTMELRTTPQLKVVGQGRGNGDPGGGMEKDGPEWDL
Test: LTB4-induced intracellular calcium increase (Fluo-3) in CHO cells expressing human BLT2
Format: cell-based
Conditions: CHO cells harbouring BLT2; compound 10 μM; 100 nM LTB4; fluorescence AUC in 10 min
Procedure: (§1) CHO cells harbouring a gene encoding human BLT1 or human BLT2 and functionally expressing the receptor were seeded in a 96 well plate at 4×10^4 cells/well, and cultured at 37° C. for 60 min. The culture supernatant was removed and a loading buffer (100 μl) containing 4 μM Fluo-3 (manufactured by Dojindo), 0.04% pluoronic acid (manufactured by Sigma) and 1% serum was added. The cells were cultured at 37° C. for 30 min to introduce Fluo-3 into the cells. After culture, the cells were washed with a buffer, and a buffer containing the compound of Example 1 (10 μM (final concentration)) was added, and then 100 nM (final concentration) of leukotriene B4 (LTB4) was added. Changes in the intracellular calcium ion concentration were measured with Flexstation (manufactured by Molecular Devices Corporation) as an increase in the fluorescence intensity (area under a curve in a time-course graph of fluorescence intensity in 10 min measurement). As a positive control of BLT1 and BLT2 antagonists, ZK158252, a known LTB4 inhibitor, was used.

Row | SMILES | suppression of increase in the intracellular calcium ion concentration due to LTB4 stimulation
16 | CCN(CC)C(=O)/C=C(\C)c1cc2cccc(OC(C)c3ccccc3)c2o1 (stereo not shown) [Example 1, (E)-3-[7-(1-phenylethoxy)-benzofuran-2-yl]-but-2-enoic acid-diethylamide] | suppressed by the compound of Example 1 at an intensity equivalent to or greater than the suppression by ZK158252
17 | O=C(O)CCC/C=C1\CCCCC1/C=C/C=C/C(O)C1(CC#Cc2ccccc2)CCC1 (stereo not shown) [ZK158252, reference compound] | significantly suppressed

Biological target: T2, human BLT1 (Homo sapiens, UniProt Q15722)
T2 construct: expressed in transfected cells; host or cells: CHO cells
Test: LTB4-induced intracellular calcium increase (Fluo-3) in CHO cells expressing human BLT1
Format: cell-based
Conditions: CHO cells harbouring BLT1; compound 10 μM; 100 nM LTB4; fluorescence AUC in 10 min
Procedure: as §1

T2 sequence (Q15722 whole entry): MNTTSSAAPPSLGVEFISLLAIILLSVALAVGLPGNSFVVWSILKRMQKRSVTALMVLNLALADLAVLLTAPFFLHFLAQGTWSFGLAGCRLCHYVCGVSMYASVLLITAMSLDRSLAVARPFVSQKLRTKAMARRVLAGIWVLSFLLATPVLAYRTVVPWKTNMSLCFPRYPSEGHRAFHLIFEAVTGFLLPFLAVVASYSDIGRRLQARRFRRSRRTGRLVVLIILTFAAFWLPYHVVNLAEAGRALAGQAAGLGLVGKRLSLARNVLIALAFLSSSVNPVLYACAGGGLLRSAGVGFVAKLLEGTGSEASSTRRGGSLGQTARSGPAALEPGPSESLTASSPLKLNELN

Row | SMILES | suppression of increase in the intracellular calcium ion concentration due to LTB4 stimulation
18 | CCN(CC)C(=O)/C=C(\C)c1cc2cccc(OC(C)c3ccccc3)c2o1 (stereo not shown) [Example 1, (E)-3-[7-(1-phenylethoxy)-benzofuran-2-yl]-but-2-enoic acid-diethylamide] | weaker as compared to the effect on BLT2
19 | O=C(O)CCC/C=C1\CCCCC1/C=C/C=C/C(O)C1(CC#Cc2ccccc2)CCC1 (stereo not shown) [ZK158252, reference compound] | significantly suppressed
